This is an account of results in PubChem BioAssay (NCI).

Some test systems named below: 786-0 renal; LOX IMVI melanoma; M14 melanoma; RXF 393 renal; SF-268 CNS; SF-295 CNS; SNB-19 CNS; UO-31 renal; SR leukemia.
Common to all, as to assay: inhibition of tumour cell growth, NCI panel, 48 h

“And” between values parts separate entries of the source, which are not always exact repeats. Equal entries are not always repeated.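 A five-concentration, 48-hour dose response in 96-well plates underlies each endpoint, interpolated linearly between surrounding concentrations. The concentration for 50% growth inhibition is given as GI50. TGI: total growth inhibition.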

Consider `O=c1[nH]cc(C(F)(C(F)(F)F)C(F)(F)F)c(=O)[nH]1`, for which the TGI in the experiment on 786-0 renal, in the experiment on LOX IMVI melanoma, with M14 melanoma, with RXF 393 renal, with SF-268 CNS and in the experiment with SF-295 CNS was more than 100 µM throughout. Besides, the TGI in the experiment with SNB-19 CNS and in the experiment on UO-31 renal was more than 100 µM in each case.
As to `COc1ccc(C)cc1C1CCC(=O)O1` (stereo not given), the TGI with 786-0 renal, with LOX IMVI melanoma, in the experiment with M14 melanoma, in the experiment with RXF 393 renal, in the experiment on SF-295 CNS and with SNB-19 CNS was more than 100 µM each time. Also, the TGI with SR leukemia and with UO-31 renal was more than 100 µM in each case.
On to `COc1cc(C(C#N)NNc2nc(C)cc(=O)[nH]2)cc(OC)c1OC` (stereo not given), for which the TGI in the experiment with 786-0 renal, in the experiment with LOX IMVI melanoma, in the experiment with M14 melanoma, in the experiment with RXF 393 renal, in the experiment on SF-268 CNS and with SF-295 CNS was more than 100 µM in each case. The TGI with SR leukemia and with UO-31 renal was more than 100 µM each time.
As to `CC(C)N1C(C)[C@@H](c2ccccc2)O[P@]1(=O)CC1=CCCCC1` (stereo not given in full), the TGI in the experiment with 786-0 renal, in the experiment with LOX IMVI melanoma, with M14 melanoma, with RXF 393 renal, in the experiment on SF-268 CNS and with SF-295 CNS was more than 100 µM each time. The TGI in the experiment on SNB-19 CNS, in the experiment with SR leukemia and in the experiment with UO-31 renal was more than 100 µM throughout.
Turning to `C/C(=N\NS(=O)(=O)c1ccc([N+](=O)[O-])cc1)c1ccc[n+]([O-])n1`, the TGI is 15.6 µM in the experiment with 786-0 renal; 2.15 µM in the experiment on LOX IMVI melanoma; 4.84 µM with M14 melanoma; 2.67 µM in the experiment with RXF 393 renal; 7.65 µM in the experiment on SF-268 CNS; 7.05 µM with SF-295 CNS. Also, the TGI with SNB-19 CNS is 99.1 µM; in the experiment on SR leukemia, 49 µM; in the experiment on UO-31 renal, 6.74 µM.
With `CCCCCCCCCCCCCCCCCC(=O)NCC(COP(=O)(O)O)OCC` (stereo not given), the TGI in the experiment with 786-0 renal is more than 100 µM; in the experiment on M14 melanoma, more than 100 µM; with SF-268 CNS, 61.2 µM; in the experiment with SF-295 CNS, 37.5 µM; in the experiment on SNB-19 CNS, 90.2 µM; with SR leukemia, more than 100 µM. Also, the TGI in the experiment with UO-31 renal stood at 83.2 µM.
With `COc1ccc(NC(=O)C2C(=O)N(c3ccc(OC)cc3)C(=O)/C2=N\NC(N)=O)cc1` (stereo not given), the TGI in the experiment on 786-0 renal was 49.3 µM; in the experiment with LOX IMVI melanoma, more than 100 µM; in the experiment with M14 melanoma, more than 100 µM; in the experiment on RXF 393 renal, 56.7 µM; in the experiment with SF-268 CNS, 63.9 µM; in the experiment with SF-295 CNS it was more than 100 µM. Further, the TGI in the experiment on SNB-19 CNS is more than 100 µM; with UO-31 renal it was 80.8 µM.
As for `c1ccc(-c2ccnc3c2ccc2c(-c4ccccc4)ccnc23)cc1`, the TGI in the experiment with 786-0 renal was determined as 10.4 µM; with LOX IMVI melanoma, 14.8 µM; with M14 melanoma, 17.6 µM; in the experiment on RXF 393 renal, 6.05 µM; with SF-268 CNS, 13.3 µM; in the experiment on SNB-19 CNS, 13.9 µM. For the same compound, the TGI was determined as 1.29 µM in the experiment on SR leukemia and 4.91 µM in the experiment with UO-31 renal.
Turning to `COC(=O)C(C(=O)C(N)=O)c1csc(-n2nc(-c3ccccc3)cc2-c2ccccc2)n1` (stereo not given), the TGI is more than 31.6 µM in the experiment with 786-0 renal; more than 100 µM with LOX IMVI melanoma; more than 31.6 µM in the experiment on M14 melanoma; more than 31.6 µM in the experiment with RXF 393 renal; more than 31.6 µM in the experiment on SF-268 CNS; more than 100 µM in the experiment with SF-295 CNS. Also, the TGI is 17.2 µM in the experiment on SNB-19 CNS and 28.9 µM with UO-31 renal.
With `S=c1c2ccccc2c(=S)n2n1CC=CC2`, the TGI in the experiment with 786-0 renal, in the experiment on LOX IMVI melanoma, with M14 melanoma, in the experiment on RXF 393 renal, in the experiment with SF-268 CNS and with SF-295 CNS was more than 100 µM throughout. The TGI in the experiment on SNB-19 CNS and with UO-31 renal was more than 100 µM in each case.
Turning to `c1ccc(-c2nnc3nn4c(-c5ccccc5)cnnc4c3c2-c2ccccc2)cc1`, the TGI in the experiment with 786-0 renal was 25.8 µM; in the experiment with LOX IMVI melanoma, more than 100 µM; with M14 melanoma, more than 100 µM; with RXF 393 renal, 46.3 µM; with SF-295 CNS, more than 100 µM; in the experiment on SNB-19 CNS, 61.2 µM. For the same compound, the TGI is more than 100 µM in the experiment with SR leukemia and 75.1 µM in the experiment on UO-31 renal.
Regarding `Cc1c2ccncc2c(C)c2c1[nH]c1ccc(Cl)cc12`, the TGI was 2.27 µM in the experiment with 786-0 renal; 6 µM and 2.94 µM in the experiment with LOX IMVI melanoma; 16.7 µM in the experiment with M14 melanoma; 9.91 µM with RXF 393 renal; 12.5 µM and 25.2 µM with SF-268 CNS; 8.38 µM and 15.3 µM with SF-295 CNS. In addition, the TGI in the experiment on SNB-19 CNS was 8.36 µM and 15.5 µM; with UO-31 renal, 8.15 µM and 16.3 µM. Also, the GI50 in the experiment with SF-268 CNS is 2.63 µM and 2.66 µM; in the experiment with SF-295 CNS, 2.56 µM and 3.56 µM; in the experiment with SNB-19 CNS, 3 µM; in the experiment on UO-31 renal, 4.44 µM.
With `C#CCOCn1cnc2ncnc(N)c21`, the TGI in the experiment on 786-0 renal, in the experiment with LOX IMVI melanoma, with RXF 393 renal, in the experiment on SF-268 CNS, in the experiment on SF-295 CNS and in the experiment on SNB-19 CNS was more than 100 µM in each case. The TGI with SR leukemia and in the experiment with UO-31 renal was more than 100 µM each time.
Regarding `Cc1ccc(/C=N/NS(=O)(=O)c2ccccc2)c(C)c1`, the TGI with 786-0 renal, with LOX IMVI melanoma, with M14 melanoma, with RXF 393 renal, with SF-268 CNS and with SF-295 CNS was more than 100 µM each time. The TGI in the experiment on SR leukemia and in the experiment with UO-31 renal was more than 100 µM in each case.
Regarding `COc1ccc2c(c1)c1c3n2CCNN=C3CCC1`, the TGI in the experiment with 786-0 renal, in the experiment with LOX IMVI melanoma, in the experiment on M14 melanoma, in the experiment with SF-268 CNS, in the experiment on SF-295 CNS and in the experiment on SNB-19 CNS was more than 100 µM each time. Moreover, the TGI with SR leukemia and with UO-31 renal was more than 100 µM throughout.
Regarding `O=CCCCC(Sc1ccccc1)Sc1ccccc1`, the TGI is 46 µM with 786-0 renal; 26.6 µM in the experiment with LOX IMVI melanoma; 51.3 µM in the experiment with M14 melanoma; 43.3 µM in the experiment with SF-268 CNS; 40.7 µM in the experiment with SF-295 CNS; more than 100 µM with SNB-19 CNS. Moreover, the TGI in the experiment on SR leukemia was found to be 48.3 µM; in the experiment on UO-31 renal it was 66.8 µM.
On to `O=c1c2ccccc2nc(-c2ccccc2)n1NC(=S)Nc1cccc(Cl)c1`, for which the TGI was more than 100 µM with 786-0 renal; more than 100 µM with LOX IMVI melanoma; more than 100 µM with M14 melanoma; 67.1 µM with RXF 393 renal; more than 100 µM with SF-268 CNS; more than 100 µM with SF-295 CNS. The TGI in the experiment on SR leukemia and with UO-31 renal was more than 100 µM in each case.
Regarding `O=C1C=Cc2ncccc2C1=O`, the TGI was 29.1 µM with 786-0 renal; 26.9 µM in the experiment on LOX IMVI melanoma; 32 µM in the experiment with M14 melanoma; 35.9 µM with RXF 393 renal; more than 59.2 µM in the experiment with SF-268 CNS; 32.2 µM in the experiment with SF-295 CNS. The results for the TGI in the experiment on SNB-19 CNS and in the experiment on UO-31 renal were more than 100 µM and more than 57.7 µM, respectively.
With `CC(=O)Nc1ccc(-c2nnc(SCC(=O)Nc3ccc(Cl)cc3)o2)cc1`, the TGI in the experiment on 786-0 renal came to 19.6 µM; in the experiment on LOX IMVI melanoma, 22.4 µM; in the experiment on M14 melanoma it was 34.1 µM; in the experiment on RXF 393 renal, 22.6 µM; in the experiment on SF-268 CNS it was 20.1 µM; with SF-295 CNS, 25.2 µM. For the same compound, the TGI in the experiment with SNB-19 CNS was 35.7 µM; in the experiment with UO-31 renal, 33.6 µM.
Take `CC(=O)OC(=O)O/C=C\CCl`: the TGI in the experiment with 786-0 renal, in the experiment on M14 melanoma, in the experiment with RXF 393 renal, with SF-268 CNS, in the experiment on SNB-19 CNS and with SR leukemia was more than 100 µM in each case. For the same compound, the TGI in the experiment on UO-31 renal is more than 100 µM.
Take `CCOC(=O)CC(NC(=O)c1ccc(N=NN(C)C)cc1)C(=O)OCC` (stereo not given): the TGI in the experiment with 786-0 renal, in the experiment on LOX IMVI melanoma, in the experiment with M14 melanoma, in the experiment with SF-268 CNS, with SF-295 CNS and in the experiment on SNB-19 CNS was more than 100 µM each time. Moreover, the TGI in the experiment on SR leukemia and in the experiment on UO-31 renal was more than 100 µM throughout.
For `O=S1(=O)c2ccccc2N=C(c2ccccc2Cl)CC1c1ccc(F)cc1` (stereo not given), the TGI in the experiment with 786-0 renal turned out to be 30.5 µM; with LOX IMVI melanoma, 34.2 µM; with M14 melanoma, 35.3 µM; in the experiment on RXF 393 renal, 20.1 µM; in the experiment on SF-268 CNS it was 47.4 µM; with SF-295 CNS it was 34.4 µM. Moreover, the results for the TGI in the experiment on SNB-19 CNS and in the experiment on UO-31 renal were 31.4 µM and 28.6 µM, respectively.
`Cn1nc(-c2ccccc2)c(C(=O)/C=C/c2ccc(Cl)cc2)c(N2CCCC2)c1=O`: the TGI with 786-0 renal is 13.5 µM; in the experiment with LOX IMVI melanoma, 39.2 µM; with M14 melanoma, 22.2 µM; with RXF 393 renal, 8.52 µM; in the experiment on SF-268 CNS, 20.2 µM; with SF-295 CNS, 11.6 µM. In addition, the TGI came to 21.7 µM with SNB-19 CNS and 21.5 µM with UO-31 renal.
Take `CCc1cc(Cc2ccc(C)c(NC(=O)C(=O)C3C(=O)NC(=O)NC3=O)c2CC)cc(C)c1NC(=O)C(=O)C1C(=O)NC(=O)NC1=O`: the TGI in the experiment with 786-0 renal, with LOX IMVI melanoma, in the experiment with M14 melanoma, in the experiment on RXF 393 renal, in the experiment with SF-268 CNS and with SNB-19 CNS was more than 100 µM throughout. In the experiment with UO-31 renal, this compound had a TGI of more than 100 µM.
